In US20090042987A1, “TREATMENT OF NEUROPATHIC PAIN” (priority 2007, published 2009):
“Also recorded” adds a separate entry of the source.

Legend:
STZ-diabetic rats = assay: Behavioural observations / adverse effects in STZ-diabetic rats; assay type: in vivo, rat; conditions: tranilast 30-400 mg/kg oral, 7 consecutive twice-daily bolus doses
Source text: Behavioural Observations. STZ-diabetic rats were monitored for visible and audible signs of distress throughout the testing period. The visible signs of distress included behavioural changes such as complete immobility, movement with abnormal gait, agitation, aggression, wet dog shakes, excessive grooming, restlessness with constant movement, repeated sudden movements or staring.

[1] = tested on: drug-naïve STZ-diabetic rats; assay: von Frey paw withdrawal thresholds, drug-naïve STZ-diabetic rats, Example 2; assay type: in vivo, rat; conditions: for Mean (±SEM) AUC (area under the normalized PWT versus time curve) / Mean (±SEM) Peak response (PWT) / Mean (±SEM) % MPR at peak: after 7th consecutive twice-daily dose; for Mean (±SEM) % MPR at peak: 100% MPR = full reversal of tactile allodynia
Method: Experimental Animals Ethical approval for this study was obtained from the Animal Experimentation Ethics Committee of The University of Queensland. Adult male Sprague-Dawley (SD) rats (222±4 g) were used for this study. Rats were housed in a temperature controlled room (21+2.0 C) with a 12/12 hour light/dark cycle. Food and water were available ad libitum. Initiation of drug administration occurred at 8-11 weeks post-STZ administration for rats in Experiment 1 (PCT-001) and at 10-12 weeks post-STZ administration for rats in Experiment 2 (PCT-007).
Test Article Tranilast was supplied by the Sponsor and stored at −4° C. until use. Gabapentin (100 mg/kg, dissolved in water for injection) was utilized as the positive control for this study.
Test Article and Vehicle Preparation Test article formulations were prepared freshly on the day of administration by weighing the appropriate amount of bulk powder and suspending it in the required volume of vehicle. Carboxymethyl cellulose ((CMC) 0.5% in water for injection) was utilized as the vehicle for this study.
Test Article Administration. […] The maximum oral gavage volume administered in this study was […]. 4.4
STZ-Diabetic Rat Model of Painful Diabetic Neuropathy. Painful diabetic neuropathy is a common long-term complication of diabetes in humans that develops as a result of a sustained biochemical nerve injury. […] Following the induction of diabetes with intravenous STZ at 70-80 mg/kg, it generally takes 6-8 wks for tactile allodynia, the defining symptom of PDN, to fully develop in both rat hindpaws.
Induction of STZ-Diabetes in Rats. On day 0, rats were anaesthetized with 3% isoflurane:97% O2 and a short polyethylene cannula (0.5 mm ID, 0.8 mm OD) was inserted into the jugular vein to facilitate the intravenous (i.v.) administration of a single dose of streptozotocin (STZ: 70-80 mg/kg). After STZ injection, the cannula was removed and the jugular vein was tied off and the wound was closed. Rats received subcutaneous benzylpenicillin (60 mg) prior to surgery to prevent infection and were kept warm during surgical recovery. Rats were housed singly prior to further experimentation and were monitored daily from the time of STZ administration with regard to general health and well-being.
Von Frey Assessment of Paw Withdrawal Thresholds. Calibrated von Frey filaments were used to determine the lowest mechanical threshold required to evoke a brisk paw withdrawal reflex in the rat hindpaws. Briefly, rats were transferred individually to wire mesh testing cages (20 cm×20 cm×20 cm) and allowed to acclimatize for approximately 10-20 min prior to von Frey testing. Commencing with the von Frey filament that produced the 6 g force, the filament was applied to the plantar surface of the hindpaw until the filament buckled slightly. Absence of a response after 3 s prompted use of the next filament of increasing weight. A withdrawal response within 3 s prompted use of the next filament of decreasing weight. Filaments used produced buckling weights of 2, 4, 6, 8, 10, 12, 14, 16, 18 and 20 g. […] Tactile allodynia is regarded as being fully developed when von Frey PWTs in the injured hindpaws are <6 g.
Restoring von-Frey PWTs in the hindpaws from <6 g to pre-STZ surgery levels (12±2 g) is the treatment goal representing full reversal of tactile allodynia. If drug treatment increases PWTs above pre-surgical baseline values (i.e. >12±2 g), such a response is classified as antinociception. Before administration of STZ, baseline von Frey measurements were assessed. Following STZ administration, baseline PWTs were assessed in the hindpaws at week 8-11 to confirm the development of diabetes-induced tactile allodynia.
Dose-Response Curve for Tranilast in Drug-Naive STZ-Diabetic Rats. […]

COc1ccc(/C=C/C(=O)Nc2ccccc2C(=O)O)cc1OC [Tranilast, 2-[[3-(3,4-dimethoxyphenyl)-1-oxo-2-propenyl]amino]benzoic acid]
Adverse (behavioural) effects (STZ-diabetic rats): no discernible adverse effects; also recorded: did not produce discernible adverse behavioural effects | Mean (±SEM) von Frey Paw Withdrawal threshold assessed prior to dose ([1]; tranilast 100 mg/kg oral twice-daily, prior to dose 1): 4.8 ± 0.5 g | Mean (±SEM) von Frey Paw Withdrawal threshold assessed prior to dose ([1]; tranilast 100 mg/kg oral twice-daily, prior to dose 3): 4.4 ± 0.7 g | Mean (±SEM) von Frey Paw Withdrawal threshold assessed prior to dose ([1]; tranilast 100 mg/kg oral twice-daily, prior to dose 5): 5.1 ± 0.5 g | Mean (±SEM) von Frey Paw Withdrawal threshold assessed prior to dose ([1]; tranilast 100 mg/kg oral twice-daily, prior to dose 7): 5.3 ± 0.5 g | Mean (±SEM) von Frey Paw Withdrawal threshold following the 7th consecutive dose ([1]; tranilast 100 mg/kg oral twice-daily, time 0 h (pre-dose)): 5.3 ± 0.4 g | Mean (±SEM) von Frey Paw Withdrawal threshold following the 7th consecutive dose ([1]; tranilast 100 mg/kg oral twice-daily, time 0.15 h): 6.0 ± 0 g | Mean (±SEM) von Frey Paw Withdrawal threshold following the 7th consecutive dose ([1]; tranilast 100 mg/kg oral twice-daily, time 0.5 h): 7.25 ± 0.5 g | Mean (±SEM) von Frey Paw Withdrawal threshold following the 7th consecutive dose ([1]; tranilast 100 mg/kg oral twice-daily, time 0.75 h): 7.75 ± 0.25 g | Mean (±SEM) von Frey Paw Withdrawal threshold following the 7th consecutive dose ([1]; tranilast 100 mg/kg oral twice-daily, time 1 h): 8.25 ± 0.5 g | Mean (±SEM) von Frey Paw Withdrawal threshold following the 7th consecutive dose ([1]; tranilast 100 mg/kg oral twice-daily, time 1.25 h): 8.0 ± 0 g | Mean (±SEM) von Frey Paw Withdrawal threshold following the 7th consecutive dose ([1]; tranilast 100 mg/kg oral twice-daily, time 1.5 h): 6.75 ± 0.5 g | Mean (±SEM) von Frey Paw Withdrawal threshold following the 7th consecutive dose ([1]; tranilast 100 mg/kg oral twice-daily, time 2 h): 7.0 ± 0.6 g | Mean (±SEM) von Frey Paw Withdrawal threshold following the 7th consecutive dose ([1]; tranilast 100 mg/kg oral twice-daily, time 3 h): 6.25 ± 0.3 g | Mean (±SEM) AUC (area under the normalized PWT versus time curve) ([1]; tranilast 100 mg/kg oral): 4.98 ± 1.7 | Mean (±SEM) Peak response (PWT) ([1]; tranilast 100 mg/kg oral): 8.25 ± 0.5 | Mean (±SEM) % MPR at peak ([1]; tranilast 100 mg/kg oral): 53.2 ± 3.3% | Mean (±SEM) von Frey Paw Withdrawal threshold assessed prior to dose ([1]; tranilast 200 mg/kg oral twice-daily, prior to dose 1): 4.9 ± 0.6 g | Mean (±SEM) von Frey Paw Withdrawal threshold assessed prior to dose ([1]; tranilast 200 mg/kg oral twice-daily, prior to dose 3): 5.2 ± 0.6 g | Mean (±SEM) von Frey Paw Withdrawal threshold assessed prior to dose ([1]; tranilast 200 mg/kg oral twice-daily, prior to dose 5): 5.2 ± 0.5 g | Mean (±SEM) von Frey Paw Withdrawal threshold assessed prior to dose ([1]; tranilast 200 mg/kg oral twice-daily, prior to dose 7): 5.2 ± 0.5 g | Mean (±SEM) von Frey Paw Withdrawal threshold following the 7th consecutive dose ([1]; tranilast 200 mg/kg oral twice-daily, time 0 h (pre-dose)): 5.2 ± 0.4 g | Mean (±SEM) von Frey Paw Withdrawal threshold following the 7th consecutive dose ([1]; tranilast 200 mg/kg oral twice-daily, time 0.15 h): 5.75 ± 0.7 g | Mean (±SEM) von Frey Paw Withdrawal threshold following the 7th consecutive dose ([1]; tranilast 200 mg/kg oral twice-daily, time 0.5 h): 7.25 ± 0.5 g | Mean (±SEM) von Frey Paw Withdrawal threshold following the 7th consecutive dose ([1]; tranilast 200 mg/kg oral twice-daily, time 0.75 h): 8.25 ± 0.25 g | Mean (±SEM) von Frey Paw Withdrawal threshold following the 7th consecutive dose ([1]; tranilast 200 mg/kg oral twice-daily, time 1 h): 8.75 ± 0.5 g | Mean (±SEM) von Frey Paw Withdrawal threshold following the 7th consecutive dose ([1]; tranilast 200 mg/kg oral twice-daily, time 1.25 h): 7.25 ± 0.25 g | Mean (±SEM) von Frey Paw Withdrawal threshold following the 7th consecutive dose ([1]; tranilast 200 mg/kg oral twice-daily, time 1.5 h): 7.0 ± 0.5 g | Mean (±SEM) von Frey Paw Withdrawal threshold following the 7th consecutive dose ([1]; tranilast 200 mg/kg oral twice-daily, time 2 h): 7.25 ± 0.25 g | Mean (±SEM) von Frey Paw Withdrawal threshold following the 7th consecutive dose ([1]; tranilast 200 mg/kg oral twice-daily, time 3 h): 6.0 ± 0 g | Mean (±SEM) AUC (area under the normalized PWT versus time curve) ([1]; tranilast 200 mg/kg oral): 5.75 ± 0.7 | Mean (±SEM) Peak response (PWT) ([1]; tranilast 200 mg/kg oral): 8.75 ± 0.5 | Mean (±SEM) % MPR at peak ([1]; tranilast 200 mg/kg oral): 62.6 ± 11.7% | Mean (±SEM) von Frey Paw Withdrawal threshold assessed prior to dose ([1]; tranilast 300 mg/kg oral twice-daily, prior to dose 1): 4.2 ± 0.6 g | Mean (±SEM) von Frey Paw Withdrawal threshold assessed prior to dose ([1]; tranilast 300 mg/kg oral twice-daily, prior to dose 3): 3.7 ± 0.8 g | Mean (±SEM) von Frey Paw Withdrawal threshold assessed prior to dose ([1]; tranilast 300 mg/kg oral twice-daily, prior to dose 5): 3.9 ± 0.7 g | Mean (±SEM) von Frey Paw Withdrawal threshold assessed prior to dose ([1]; tranilast 300 mg/kg oral twice-daily, prior to dose 7): 4.8 ± 0.6 g | Mean (±SEM) von Frey Paw Withdrawal threshold following the 7th consecutive dose ([1]; tranilast 300 mg/kg oral twice-daily, time 0 h (pre-dose)): 4.8 ± 0.5 g | Mean (±SEM) von Frey Paw Withdrawal threshold following the 7th consecutive dose ([1]; tranilast 300 mg/kg oral twice-daily, time 0 h (pre-dose), listed as tranilast): 4.8 (±0.5) g | Mean (±SEM) von Frey Paw Withdrawal threshold following the 7th consecutive dose ([1]; tranilast 300 mg/kg oral twice-daily, time 0.15 h): 5.4 ± 0.7 g
